Reference: ChEMBL document CHEMBL1201862, “PubChem BioAssay data set” (2004)
Activity calls are given as the source filed them.

Experiments:
[1] = biological target: ATP-dependent molecular chaperone HSP82 (Candida albicans (strain WO-1) (Yeast), UniProt C4YTQ8); assay: steroid-induced GRE reporter decrease in yeast – S. cerevisiae, luminescence, Hsp90 inhibitor project, dose response (AID 2400); format: functional, cell-based;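 further: beta-galactosidase luminescence from glucocorticoid response element reporter as proxy for Hsp90 function; inhibitor potency where signal loss means Hsp90 inhibition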
ATP-dependent molecular chaperone HSP82, sequence (C4YTQ8 whole entry, the tested form may be a part): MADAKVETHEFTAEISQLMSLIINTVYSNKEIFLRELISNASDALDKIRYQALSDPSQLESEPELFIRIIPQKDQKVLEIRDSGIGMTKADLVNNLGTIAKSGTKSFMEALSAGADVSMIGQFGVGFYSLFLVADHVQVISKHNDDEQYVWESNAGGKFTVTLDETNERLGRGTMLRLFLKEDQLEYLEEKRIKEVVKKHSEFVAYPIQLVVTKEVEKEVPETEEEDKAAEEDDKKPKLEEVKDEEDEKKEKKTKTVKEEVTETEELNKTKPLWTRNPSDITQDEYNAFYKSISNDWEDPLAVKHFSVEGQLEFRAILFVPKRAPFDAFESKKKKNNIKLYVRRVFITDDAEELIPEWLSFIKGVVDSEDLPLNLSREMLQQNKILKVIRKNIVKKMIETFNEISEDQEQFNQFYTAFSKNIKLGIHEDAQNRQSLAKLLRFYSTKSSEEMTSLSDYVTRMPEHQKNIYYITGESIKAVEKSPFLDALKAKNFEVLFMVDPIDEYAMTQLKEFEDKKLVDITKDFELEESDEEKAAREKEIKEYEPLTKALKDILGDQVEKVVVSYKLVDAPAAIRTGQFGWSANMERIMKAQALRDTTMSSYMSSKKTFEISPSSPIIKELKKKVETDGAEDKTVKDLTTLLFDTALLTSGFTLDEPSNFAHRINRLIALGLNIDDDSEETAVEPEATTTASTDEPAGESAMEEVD

[2] = biological target: Envelope glycoprotein gp160 (Human immunodeficiency virus 1, UniProt Q6QLK5); assay: cell-free HIV fusion peptide-binding blockers – biochemical, uHTS, fluorescence dequenching, […] (AID 1986)
[3] = fluconazole-exposed Candida albicans growth modulators – fluorescence, retest, confirmation (AID 2467); format: functional, cell-based
[4] = NIH-3T3 fibroblast cytotoxicity, dose response, cytotoxicity control, cell-based, fluorescence, Alamar Blue, secondary assay (AID 2327); format: functional;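 further: NIH-3T3 mouse fibroblasts cultured with fluconazole at 8 µg/mL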
[5] = biological target: T1, Serine/threonine-protein phosphatase (Candida dubliniensis (strain CD36 / CBS 7987 / NCPF 3949 / NRRLY-17841) (Yeast), UniProt B9W6M3); assay: blockers of CaCl2-induced CDRE-lacZ signaling – S. cerevisiae, luminescence, secondary, dose response (AID 2388); format: functional, cell-based;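 further: yeast reporter cells carrying a calcineurin-responsive lacZ construct stimulated with calcium chloride; luminescent beta-galactosidase reporter signal in whole cells rather than isolated phosphatase activity; potency for inhibition where a drop in reporter signal means calcineurin blockade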
T1 sequence (B9W6M3 whole entry): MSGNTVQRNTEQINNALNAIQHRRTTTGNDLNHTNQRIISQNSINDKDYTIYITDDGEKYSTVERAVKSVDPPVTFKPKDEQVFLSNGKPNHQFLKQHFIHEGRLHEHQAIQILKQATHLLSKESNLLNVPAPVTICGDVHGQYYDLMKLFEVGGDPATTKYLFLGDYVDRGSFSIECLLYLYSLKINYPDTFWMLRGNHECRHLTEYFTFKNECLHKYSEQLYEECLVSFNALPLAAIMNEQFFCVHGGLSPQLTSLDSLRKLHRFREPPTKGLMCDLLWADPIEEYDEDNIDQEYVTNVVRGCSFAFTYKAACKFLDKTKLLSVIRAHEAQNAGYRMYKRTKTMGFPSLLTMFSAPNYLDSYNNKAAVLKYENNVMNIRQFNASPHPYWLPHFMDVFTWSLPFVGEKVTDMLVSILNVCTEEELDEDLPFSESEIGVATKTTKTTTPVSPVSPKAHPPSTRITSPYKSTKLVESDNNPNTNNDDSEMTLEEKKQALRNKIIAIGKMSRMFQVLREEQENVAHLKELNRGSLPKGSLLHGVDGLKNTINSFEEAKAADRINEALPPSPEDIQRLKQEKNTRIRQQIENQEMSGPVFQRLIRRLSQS

Ion channel NompC = Ion channel NompC (Danio rerio, UniProt Q7T1G6); assay: Fluorescence counterscreen assay for TRPML3 agonists: dose response cell-based high-throughput screening assay to identify agonists of the transient receptor potential channel N1 (TRPN1). [Related pubchem assays: 1526, 1424, 1448 ]; format: functional
[6] = biological target: NACHT, LRR and PYD domains-containing protein 3 (Homo sapiens, UniProt Q96P20); assay: NALP3 inhibitors in yeast, dose response, luminescent (AID 488799); format: functional
NACHT, LRR and PYD domains-containing protein 3, sequence (Q96P20 whole entry, the tested form may be a part): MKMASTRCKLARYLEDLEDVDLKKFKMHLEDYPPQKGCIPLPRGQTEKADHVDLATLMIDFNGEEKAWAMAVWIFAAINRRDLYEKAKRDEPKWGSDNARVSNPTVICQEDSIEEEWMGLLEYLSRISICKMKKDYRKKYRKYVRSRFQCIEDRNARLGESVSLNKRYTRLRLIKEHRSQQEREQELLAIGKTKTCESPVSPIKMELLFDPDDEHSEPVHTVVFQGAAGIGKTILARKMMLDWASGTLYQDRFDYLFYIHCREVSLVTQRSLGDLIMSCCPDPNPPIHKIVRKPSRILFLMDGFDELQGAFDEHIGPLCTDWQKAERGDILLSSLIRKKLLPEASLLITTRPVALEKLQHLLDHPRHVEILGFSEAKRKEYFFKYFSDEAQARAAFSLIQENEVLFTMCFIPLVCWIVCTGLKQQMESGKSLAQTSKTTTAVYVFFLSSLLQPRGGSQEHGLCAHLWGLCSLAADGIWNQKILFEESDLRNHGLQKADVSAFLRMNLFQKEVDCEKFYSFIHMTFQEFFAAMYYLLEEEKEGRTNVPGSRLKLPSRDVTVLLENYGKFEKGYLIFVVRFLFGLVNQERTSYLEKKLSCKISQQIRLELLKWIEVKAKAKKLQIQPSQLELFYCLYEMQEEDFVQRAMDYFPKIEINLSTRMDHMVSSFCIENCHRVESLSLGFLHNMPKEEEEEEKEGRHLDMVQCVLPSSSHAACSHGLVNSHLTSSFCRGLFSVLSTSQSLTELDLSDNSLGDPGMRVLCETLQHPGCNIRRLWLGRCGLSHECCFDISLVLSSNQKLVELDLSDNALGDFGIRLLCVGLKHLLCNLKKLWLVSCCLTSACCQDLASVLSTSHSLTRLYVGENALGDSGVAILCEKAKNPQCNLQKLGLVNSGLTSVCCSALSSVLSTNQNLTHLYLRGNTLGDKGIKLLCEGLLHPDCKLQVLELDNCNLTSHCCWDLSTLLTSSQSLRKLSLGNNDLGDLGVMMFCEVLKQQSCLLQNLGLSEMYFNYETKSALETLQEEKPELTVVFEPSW

Mucolipin-3 = Mucolipin-3 (Homo sapiens, UniProt Q8TDD5); assay: Dose response cell-based high-throughput screening assay for agonists of the transient receptor potential channel ML3 (TRPML3). [Related pubchem assays: 1526, 1424, 1448 ]; format: functional
[7] = biological target: Induced myeloid leukemia cell differentiation protein Mcl-1 (Homo sapiens, UniProt Q07820); format: functional
Induced myeloid leukemia cell differentiation protein Mcl-1, sequence (Q07820 whole entry): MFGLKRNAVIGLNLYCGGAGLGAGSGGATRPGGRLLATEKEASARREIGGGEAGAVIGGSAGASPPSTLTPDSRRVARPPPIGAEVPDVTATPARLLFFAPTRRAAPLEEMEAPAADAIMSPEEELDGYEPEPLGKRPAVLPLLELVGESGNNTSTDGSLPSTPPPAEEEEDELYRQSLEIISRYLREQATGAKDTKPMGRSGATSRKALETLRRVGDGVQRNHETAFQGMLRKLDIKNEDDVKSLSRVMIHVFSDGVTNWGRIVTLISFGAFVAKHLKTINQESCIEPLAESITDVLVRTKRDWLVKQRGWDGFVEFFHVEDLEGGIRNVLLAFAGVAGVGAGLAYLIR

[8] = HGIII-sPLA2 enzyme inhibition potency – biochemical, QFRET, IC50, dose response (AID 743457);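 further: green fluorescence rise as the enzyme cleaves BODIPY PC-A2 in liposomes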
[9] = THP-1 cell cytotoxicity, dose response, cytotoxicity control for non-replicating M. tuberculosis project (AID 489025); format: functional
Beta-galactosidase = Beta-galactosidase (Escherichia coli, UniProt Q8VNN2); assay: detection-enzyme interference by beta-gal modulators – biochemical, E. coli enzyme, set 3, artefact control for CCR6 antagonist project, dose response (AID 504712); format: functional
Beta-galactosidase, sequence (Q8VNN2 whole entry): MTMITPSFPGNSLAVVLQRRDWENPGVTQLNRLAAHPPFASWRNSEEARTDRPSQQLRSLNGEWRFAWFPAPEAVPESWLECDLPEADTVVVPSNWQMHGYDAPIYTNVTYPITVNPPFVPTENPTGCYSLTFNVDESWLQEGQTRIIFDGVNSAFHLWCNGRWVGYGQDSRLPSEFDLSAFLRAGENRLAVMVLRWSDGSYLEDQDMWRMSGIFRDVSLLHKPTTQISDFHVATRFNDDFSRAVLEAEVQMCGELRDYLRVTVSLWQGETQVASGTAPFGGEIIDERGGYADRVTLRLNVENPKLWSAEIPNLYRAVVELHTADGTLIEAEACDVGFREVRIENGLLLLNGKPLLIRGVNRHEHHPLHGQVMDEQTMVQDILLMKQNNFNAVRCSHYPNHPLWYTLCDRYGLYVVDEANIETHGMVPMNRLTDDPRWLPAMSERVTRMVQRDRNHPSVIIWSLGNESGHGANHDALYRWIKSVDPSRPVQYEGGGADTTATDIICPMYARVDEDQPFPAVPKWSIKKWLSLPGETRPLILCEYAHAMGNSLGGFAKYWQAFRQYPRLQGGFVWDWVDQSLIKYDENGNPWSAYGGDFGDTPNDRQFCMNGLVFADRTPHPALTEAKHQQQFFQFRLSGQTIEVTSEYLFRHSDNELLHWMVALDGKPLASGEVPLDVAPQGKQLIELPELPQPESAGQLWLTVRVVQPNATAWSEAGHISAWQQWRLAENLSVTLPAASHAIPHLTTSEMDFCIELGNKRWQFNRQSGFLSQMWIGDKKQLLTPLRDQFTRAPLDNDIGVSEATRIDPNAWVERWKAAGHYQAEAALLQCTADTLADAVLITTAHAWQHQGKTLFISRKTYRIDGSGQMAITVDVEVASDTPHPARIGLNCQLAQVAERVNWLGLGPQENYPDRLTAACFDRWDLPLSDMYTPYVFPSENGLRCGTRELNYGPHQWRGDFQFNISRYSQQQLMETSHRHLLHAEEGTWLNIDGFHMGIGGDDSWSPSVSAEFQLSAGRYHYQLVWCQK

[10] = biological target: Glucose-6-phosphate 1-dehydrogenase (Homo sapiens, UniProt P11413); assay: inhibition of Homo sapiens G6PD, dose series – biochemical, fluorescence, selectivity assay for P. falciparum G6PD inhibitor project, dose response (AID 504792); format: functional
Glucose-6-phosphate 1-dehydrogenase, sequence (P11413 whole entry, the tested form may be a part): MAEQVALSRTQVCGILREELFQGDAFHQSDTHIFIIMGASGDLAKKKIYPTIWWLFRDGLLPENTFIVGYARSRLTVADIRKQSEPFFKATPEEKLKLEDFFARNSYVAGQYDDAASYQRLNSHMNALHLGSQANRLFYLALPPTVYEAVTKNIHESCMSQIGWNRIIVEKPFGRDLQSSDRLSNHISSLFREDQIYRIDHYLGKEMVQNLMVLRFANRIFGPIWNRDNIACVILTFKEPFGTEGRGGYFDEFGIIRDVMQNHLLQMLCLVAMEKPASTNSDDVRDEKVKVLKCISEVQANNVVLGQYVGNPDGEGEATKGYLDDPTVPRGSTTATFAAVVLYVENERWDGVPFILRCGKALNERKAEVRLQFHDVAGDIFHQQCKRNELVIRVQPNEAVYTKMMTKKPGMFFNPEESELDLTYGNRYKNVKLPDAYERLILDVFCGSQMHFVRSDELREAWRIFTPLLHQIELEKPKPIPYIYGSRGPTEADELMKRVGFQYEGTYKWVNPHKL

[11] = biological target: T2, Polyadenylate-binding protein 1 (Homo sapiens, UniProt P11940); assay: MLLE domain peptide-binding blockers, IC50 – biochemical, fluorescence polarization, FITC-PAM2 peptide, dose response (AID 602259); format: functional; conditions: read-out: IC50_Mean
T2 sequence (P11940 whole entry, the tested form may be a part): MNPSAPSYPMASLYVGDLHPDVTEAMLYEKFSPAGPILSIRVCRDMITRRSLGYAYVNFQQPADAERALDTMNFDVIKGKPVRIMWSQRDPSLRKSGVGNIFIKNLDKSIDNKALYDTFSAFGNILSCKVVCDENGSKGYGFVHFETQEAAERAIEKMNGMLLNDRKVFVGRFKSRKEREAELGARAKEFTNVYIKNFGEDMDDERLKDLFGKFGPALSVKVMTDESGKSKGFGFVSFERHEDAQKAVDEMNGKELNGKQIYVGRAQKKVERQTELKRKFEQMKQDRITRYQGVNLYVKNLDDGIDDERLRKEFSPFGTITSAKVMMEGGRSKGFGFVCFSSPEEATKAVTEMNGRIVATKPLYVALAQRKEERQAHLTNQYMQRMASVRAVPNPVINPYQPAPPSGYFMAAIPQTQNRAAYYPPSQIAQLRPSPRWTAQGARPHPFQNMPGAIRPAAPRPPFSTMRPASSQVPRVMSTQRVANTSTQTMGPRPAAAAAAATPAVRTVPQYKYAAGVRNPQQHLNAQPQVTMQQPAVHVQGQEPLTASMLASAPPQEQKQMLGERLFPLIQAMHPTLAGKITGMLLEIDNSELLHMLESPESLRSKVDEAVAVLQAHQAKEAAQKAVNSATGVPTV

[12] = biological target: T2, Polyadenylate-binding protein 1; assay: MLLE binding blockers, Cy5 peptide tracer – biochemical, fluorescence polarization, Cy5-PAM2 peptide, secondary, miRNA deadenylation inhibitor project, dose response (AID 602260); format: functional; conditions: read-out: IC50_Mean
[13] = biological target: C-C chemokine receptor type 6 (Homo sapiens, UniProt P51684); assay: antagonism of CCR6 beta-arrestin recruitment – cell-based, luminescent beta-arrestin readout, dose response (AID 504728); format: functional
C-C chemokine receptor type 6, sequence (P51684 whole entry): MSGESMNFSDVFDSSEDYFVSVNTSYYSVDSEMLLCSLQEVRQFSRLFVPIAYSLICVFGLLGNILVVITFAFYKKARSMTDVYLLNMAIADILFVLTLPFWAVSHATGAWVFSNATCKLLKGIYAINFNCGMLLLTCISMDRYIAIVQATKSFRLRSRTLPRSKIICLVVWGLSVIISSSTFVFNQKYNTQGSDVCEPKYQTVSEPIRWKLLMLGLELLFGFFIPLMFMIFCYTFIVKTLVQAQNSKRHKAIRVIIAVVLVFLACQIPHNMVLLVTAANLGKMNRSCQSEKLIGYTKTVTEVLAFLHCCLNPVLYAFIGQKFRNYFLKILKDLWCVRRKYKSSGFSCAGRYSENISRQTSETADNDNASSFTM

[14] = biological target: Eukaryotic translation initiation factor 4E (Mus musculus, UniProt P63073); assay: blockers of eIF4G binding by eIF4E – biochemical, TR-FRET, dose response (AID 855); format: functional;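 further: potency for disrupting eIF4E binding to eIF4GI seen as loss of FRET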
Eukaryotic translation initiation factor 4E, sequence (P63073 whole entry): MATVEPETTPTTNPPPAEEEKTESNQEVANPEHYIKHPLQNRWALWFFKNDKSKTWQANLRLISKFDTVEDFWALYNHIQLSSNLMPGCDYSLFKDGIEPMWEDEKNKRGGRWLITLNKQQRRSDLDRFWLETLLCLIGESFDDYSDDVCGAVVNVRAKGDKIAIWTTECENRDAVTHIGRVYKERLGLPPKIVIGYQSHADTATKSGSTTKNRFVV

Hexokinase HKDC1 = biological target: T3, Hexokinase HKDC1 (Homo sapiens, UniProt Q2TB90); assay: inhibition of HKDC1 glucose phosphorylation – biochemical, W721R variant, dose response (AID 504729); format: functional
T3 sequence (Q2TB90 whole entry): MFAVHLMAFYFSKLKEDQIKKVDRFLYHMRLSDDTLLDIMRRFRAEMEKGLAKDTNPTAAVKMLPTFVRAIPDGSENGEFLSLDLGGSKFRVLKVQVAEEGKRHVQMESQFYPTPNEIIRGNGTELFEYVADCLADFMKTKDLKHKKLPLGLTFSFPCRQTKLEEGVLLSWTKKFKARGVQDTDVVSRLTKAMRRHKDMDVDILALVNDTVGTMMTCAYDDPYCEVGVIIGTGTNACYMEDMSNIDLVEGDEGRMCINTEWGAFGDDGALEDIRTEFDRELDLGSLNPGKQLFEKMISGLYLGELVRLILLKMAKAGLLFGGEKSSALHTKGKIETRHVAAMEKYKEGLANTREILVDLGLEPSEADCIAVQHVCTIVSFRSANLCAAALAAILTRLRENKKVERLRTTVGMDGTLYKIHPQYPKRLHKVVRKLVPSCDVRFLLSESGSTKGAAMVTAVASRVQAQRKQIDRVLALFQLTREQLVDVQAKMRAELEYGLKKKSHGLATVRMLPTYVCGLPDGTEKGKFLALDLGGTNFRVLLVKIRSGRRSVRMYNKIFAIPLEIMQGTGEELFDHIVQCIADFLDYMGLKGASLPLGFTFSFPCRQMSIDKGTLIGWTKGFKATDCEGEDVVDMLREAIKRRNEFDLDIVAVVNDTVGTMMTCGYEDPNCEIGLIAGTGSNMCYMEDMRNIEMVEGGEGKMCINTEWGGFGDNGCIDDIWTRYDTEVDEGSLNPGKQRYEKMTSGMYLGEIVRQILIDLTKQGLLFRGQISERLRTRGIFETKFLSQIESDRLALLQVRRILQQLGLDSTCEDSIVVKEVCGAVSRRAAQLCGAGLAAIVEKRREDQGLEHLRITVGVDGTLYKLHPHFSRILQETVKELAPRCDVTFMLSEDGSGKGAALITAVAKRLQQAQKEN

[15] = viability loss in THP-1 monocytes – THP-1 cells, cytotoxicity control for Vif-APOBEC3G degradation inhibitor project, dose response (AID 1117359); format: functional; conditions: THP-1

Structure (SMILES): CC(C)CCN1C(=O)c2ccc(C(=O)Nc3ccc(Br)cc3C(=O)O)cc2C1=O
- EC50 [1]: 15.6 µM (active)
- IC50 [2]: > 99 µM (inactive)
- EC50 [3]: 2.46 µM (active)
- EC50 [4]: > 160 µM (inactive)
- EC50 [5]: > 180 µM (inactive)

Structure (SMILES): CN(CCOc1ccccc1)c1ccc(S(=O)(=O)N2CCCCC2)cn1
- EC50 (Ion channel NompC): > 29.9 µM (not active)
- IC50 [6]: > 100 µM (inactive)
- EC50 (Mucolipin-3): 2.58 µM (active)

Structure (SMILES): CNCc1ccccc1Sc1cc(O)ccc1O
- IC50 [7]: 4.5 µM (active)
- IC50 [8]: > 122 µM (inactive)
- CC50 [9]: 38.8 µM (active)
- IC50 (Beta-galactosidase): > 66.6 µM (inactive)
- IC50 [10]: 26.9 µM (inactive)
- IC50 [11]: > 66 µM (inactive)
- IC50 [12]: > 66 µM (inactive)
- IC50 [13]: 23.5 µM (inactive)
- IC50 [14]: > 64 µM (inactive)
- IC50 (Hexokinase HKDC1): 3.35 µM (active)
- CC50 [15]: > 40 µM (active)
